The conditions of the data set: Crystal, Transpiration method.

± gives the expanded uncertainty stated by the source.

What is called vapor or sublimation pressure is the pressure of vapour in equilibrium with the condensed phase. Take `O=c1cc[nH]c(=O)[nH]1` [2,4(1H,3H)-pyrimidinedione]: the “vapor or sublimation pressure” value reads like this: (424 K) 0.00022 ± 2e-05 kPa; (434.1 K) 0.00051 ± 4e-05 kPa; (440 K) 0.00086 ± 7e-05 kPa; (446 K) 0.00135 ± 0.0001 kPa; (451.9 K) 0.00212 ± 0.00015 kPa; (457.7 K) 0.00317 ± 0.0002 kPa. Moreover, the “vapor or sublimation pressure” value runs as follows: (462.6 K) 0.0047 ± 0.0003 kPa; (467.4 K) 0.00673 ± 0.00046 kPa; (472.4 K) 0.00905 ± 0.0006 kPa.

In the case of `Cc1c[nH]c(=O)[nH]c1=O` [thymine], the “vapor or sublimation pressure” value amounted to 0.00061 ± 5e-05 kPa (426.4 K); 0.00086 ± 7e-05 kPa (430.5 K); 0.00134 ± 0.0001 kPa (436.2 K); 0.00183 ± 0.00012 kPa (440.5 K); 0.00314 ± 0.0002 kPa (447.6 K); 0.00397 ± 0.00025 kPa (450.8 K). The “vapor or sublimation pressure” value is, setting by setting: (456.5 K) 0.00601 ± 0.00043 kPa; (460.6 K) 0.00813 ± 0.00056 kPa; (464.8 K) 0.01106 ± 0.00073 kPa; (468.9 K) 0.01464 ± 0.00095 kPa; (472.3 K) 0.01767 ± 0.0011 kPa.

For the origin of these results see the NIST ThermoML archive (doi:10.1016/j.jct.2015.03.015).
